# Article PMC8474119, “Discovery and SAR Evolution of Pyrazole Azabicyclo[3.2.1]octane Sulfonamides as a Novel Class of Non-Covalent N-Acylethanolamine-Hydrolyzing Acid Amidase (NAAA) Inhibitors for Oral Administration” (Journal of Medicinal Chemistry, 2021)
# Several values for one entry are separate records, joined by “and”; a condition that tells them apart may be missing. Equal values may be shown once.
# Target: T1, h-NAAA (Homo sapiens, UniProt Q02083)
# T1 construct: made in house; host or cells: HEK-293 cells stably overexpressing human NAAA; enzyme-enriched (lysosomal) lysate
# T1 sequence (Q02083 29-125 limits assumed): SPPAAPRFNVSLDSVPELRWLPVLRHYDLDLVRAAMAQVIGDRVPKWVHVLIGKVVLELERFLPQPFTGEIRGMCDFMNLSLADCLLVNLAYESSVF
# T1 sequence (Q02083 126-359 limits assumed): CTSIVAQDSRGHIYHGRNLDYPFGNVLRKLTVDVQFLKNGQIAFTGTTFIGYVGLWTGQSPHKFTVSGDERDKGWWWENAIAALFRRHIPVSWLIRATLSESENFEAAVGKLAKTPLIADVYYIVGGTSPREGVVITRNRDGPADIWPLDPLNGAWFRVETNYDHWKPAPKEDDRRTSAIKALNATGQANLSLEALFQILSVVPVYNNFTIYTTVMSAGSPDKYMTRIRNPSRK
# Assay: Fluorogenic human-NAAA assay (h-NAAA, fluo.)
# Type: biochemical
# Conditions: LipE = pIC50 – c Log P (h-NAAA)
# Experimental: Human recombinant proteins were obtained from HEK-293 stable overexpressing human NAAA, AC, and FAAH-1 cell lines, respectively. Cells were grown in Dulbecco’s modified Eagle medium (DMEM) containing 10% FBS, 1% glutamine, 1 mM sodium pyruvate, and 500 μg/mL geneticin (G418). To obtain a high-density cell proliferation, h-NAAA-HEK-293 cells were grown in BelloCell-500 bottle, a compact bioreactor. On the contrary, h-AC and h-FAAH-1-HEK-293 cells were grown in 150 mm dishes and scraped off with cold PBS 1× pH 7.4 at 80% confluence. Cell pellets were collected and stored at −80 °C until protein preparation.
# HEK-293 cells stably transfected with the human NAAA or human AC coding sequences were used as the enzyme source. Cells were suspended in 20 mM Tris-HCl (pH 7.4) with 0.32 M sucrose, sonicated, and centrifuged at 800g for 30 min at 4 °C. Supernatants were then centrifuged at 12,000g for 30 min at 4 °C. Pellets were resuspended in PBS buffer (pH 7.4) and subjected to three freeze-thaw cycles at −80 °C. The suspension was finally centrifuged at 105,000g for 1 h at 4 °C, supernatants were collected, protein concentration was measured, and samples were aliquoted and stored at −80 °C until use.
# The assay was run in 96-well microplates (Black OptiPlate-96 F; PerkinElmer, Massachusetts, USA), in a total reaction volume of 200 μL. h-NAAA protein preparation (4 μg) was preincubated for 30 min with various concentrations of test compounds or vehicle control (DMSO 5%) in 100 mM citrate/phosphate buffer (pH 4.5) containing 3.0 mM DTT, 0.1% NP40, 0.05% BSA, and 150 mM NaCl. The background (no activity) samples were prepared using assay buffer without h-NAAA and DMSO (5%). N-(4-methyl-2-oxo-chromen-7-yl)-hexadecanamide (PAMCA)[60] was used as a substrate (2 μM) and the reaction was carried out for 50 min at 37 °C. Fluorescence was measured with EnVision 2014 Multilabel Reader (PerkinElmer, Massachusetts, USA) using an excitation wavelength of 355 nm and an emission of 460 nm. IC50 values were calculated by non-linear regression analysis of log[concentration]/response curves generated with mean replicate values using a four-parameter Hill equation curve fitting with GraphPad Prism 5 (GraphPad Software Inc., CA, USA).
row,LipE,Structure (SMILES)
1,6.3,"Cc1n[nH]c(C)c1S(=O)(=O)N1CCC(Oc2cnccn2)CC1 [Compound 1, 2-((1-((3,5-Dimethyl-1H-pyrazol-4-yl)sulfonyl)piperidin-4-yl)oxy)pyrazine]"

# Same assay, conditions: Table S1; h-NAAA (fluo.)
row,pIC50,Structure (SMILES)
1,5.96,"Cc1n[nH]c(C)c1S(=O)(=O)N1CCC(Oc2cnccn2)CC1 [Compound 1, 2-((1-((3,5-Dimethyl-1H-pyrazol-4-yl)sulfonyl)piperidin-4-yl)oxy)pyrazine]"

# Same assay, conditions: h-NAAA (fluo.)
row,"h-NAAA inhibitory activity, in words",Structure (SMILES)
1,devoid of any activity,"Cc1n[nH]cc1S(=O)(=O)N1CCC(Oc2cnccn2)CC1 [Compound 2, 2-((1-((3-Methyl-1H-pyrazol-4-yl)sulfonyl)piperidin-4-yl)oxy)pyrazine]"
2,devoid of any activity,"O=S(=O)(c1cn[nH]c1)N1CCC(Oc2cnccn2)CC1 [Compound 3, 2-((1-((1H-Pyrazol-4-yl)sulfonyl)piperidin-4-yl)oxy)pyrazine]"
3,complete loss of inhibitory effect,"Cc1nn(C)c(C)c1S(=O)(=O)N1CCC(Oc2cnccn2)CC1 [Compound 4, 2-((1-((1,3,5-Trimethyl-1H-pyrazol-4-yl)sulfonyl)piperidin-4-yl)oxy)pyrazine]"
4,complete loss of inhibitory effect,"Cc1noc(C)c1S(=O)(=O)N1CCC(Oc2cnccn2)CC1 [Compound 5, 3,5-Dimethyl-4-((4-(pyrazin-2-yloxy)piperidin-1-yl)sulfonyl)isoxazole]"
5,complete loss of inhibitory effect,"Cc1cnn(C)c1S(=O)(=O)N1CCC(Oc2cnccn2)CC1 [Compound 6, 2-((1-((1,4-Dimethyl-1H-pyrazol-5-yl)sulfonyl)piperidin-4-yl)oxy)pyrazine]"
6,no detectable activity,"COc1n[nH]c(C)c1S(=O)(=O)N1CCC(Oc2cnccn2)CC1 [Compound 13, 2-((1-((3-Methoxy-5-methyl-1H-pyrazol-4-yl)sulfonyl)piperidin-4-yl)oxy)pyrazine]"
7,complete loss of activity,"Cc1n[nH]c(C)c1C(=O)N1CCC(Oc2cnccn2)CC1 [Compound 16, (3,5-Dimethyl-1H-pyrazol-4-yl)(4-(pyrazin-2-yloxy)piperidin-1-yl)methanone]"
8,complete loss of enzyme inhibition,"Cc1n[nH]c(C)c1S(=O)(=O)N1CC(Oc2cnccn2)C1 [Compound 18, 2-((1-((3,5-Dimethyl-1H-pyrazol-4-yl)sulfonyl)azetidin-3-yl)oxy)pyrazine]"
9,abolished the inhibitory activity,"Cc1n[nH]c(C)c1S(=O)(=O)N1CCC(Nc2cnccn2)CC1 [Compound 22, N-(1-((3,5-Dimethyl-1H-pyrazol-4-yl)sulfonyl)piperidin-4-yl)pyrazin-2-amine]"
10,abolished the inhibitory activity,"Cc1n[nH]c(C)c1S(=O)(=O)N1CCC(Cc2cnccn2)CC1 [Compound 23, 2-((1-((3,5-Dimethyl-1H-pyrazol-4-yl)sulfonyl)piperidin-4-yl)methyl)pyrazine]"
11,abolished the inhibitory activity,"Cc1n[nH]c(C)c1S(=O)(=O)N1CCC(c2cnccn2)CC1 [Compound 24, 2-(1-((3,5-Dimethyl-1H-pyrazol-4-yl)sulfonyl)piperidin-4-yl)pyrazine]"
12,inactive,"Cc1n[nH]c(C)c1S(=O)(=O)N1C[C@H]2CCC[C@@H](C1)[C@H]2Oc1cnccn1 [Compound 28, (1R,5S,9r)-3-((3,5-Dimethyl-1H-pyrazol-4-yl)sulfonyl)-9-(pyrazin-2-yloxy)-3-azabicyclo[3.3.1]nonane]"

row,Structure (SMILES),"h-NAAA inhibitory activity, in words"
1,"Cc1n[nH]c(C)c1S(=O)(=O)N1[C@@H]2CC[C@H]1C[C@H](Oc1cnccn1)C2 [Compound 21, (1R,3s,5S)-8-((3,5-Dimethyl-1H-pyrazol-4-yl)sulfonyl)-3-(pyrazin-2-yloxy)-8-azabicyclo[3.2.1]octane]",devoid of any activity

# Same assay, conditions: h-NAAA (fluo.), mean ± SD (n ≥ 3); n.a.: not active @50 μM (<10% inhibition)
row,IC50,Structure (SMILES)
1,1090 ± 163 nM,"Cc1n[nH]c(C)c1S(=O)(=O)N1CCC(Oc2cnccn2)CC1 [Compound 1, 2-((1-((3,5-Dimethyl-1H-pyrazol-4-yl)sulfonyl)piperidin-4-yl)oxy)pyrazine]"
2,4480 ± 940 nM,"Cc1cccc(C)c1S(=O)(=O)N1CCC(Oc2cnccn2)CC1 [Compound 7, 2-((1-((2,6-Dimethylphenyl)sulfonyl)piperidin-4-yl)oxy)pyrazine]"
3,620 ± 120 nM,"CCc1n[nH]c(C)c1S(=O)(=O)N1CCC(Oc2cnccn2)CC1 [Compound 8, 2-((1-((3-Ethyl-5-methyl-1H-pyrazol-4-yl)sulfonyl)piperidin-4-yl)oxy)pyrazine]"
4,330 ± 40 nM,"CCCc1n[nH]c(C)c1S(=O)(=O)N1CCC(Oc2cnccn2)CC1 [Compound 9, 2-((1-((5-Methyl-3-propyl-1H-pyrazol-4-yl)sulfonyl)piperidin-4-yl)oxy)pyrazine]"
5,910 ± 130 nM,"CCCCc1n[nH]c(C)c1S(=O)(=O)N1CCC(Oc2cnccn2)CC1 [Compound 10, 2-((1-((3-Butyl-5-methyl-1H-pyrazol-4-yl)sulfonyl)piperidin-4-yl)oxy)pyrazine]"
6,640 ± 140 nM,"Cc1[nH]nc(C(C)C)c1S(=O)(=O)N1CCC(Oc2cnccn2)CC1 [Compound 11, 2-((1-((3-isoPropyl-5-methyl-1H-pyrazol-4-yl)sulfonyl)piperidin-4-yl)oxy)pyrazine]"
7,780 ± 120 nM,"Cc1[nH]nc(C(C)(C)C)c1S(=O)(=O)N1CCC(Oc2cnccn2)CC1 [Compound 12, 2-((1-((3-(tert-Butyl)-5-methyl-1H-pyrazol-4-yl)sulfonyl)piperidin-4-yl)oxy)pyrazine]"
8,3290 ± 230 nM,"Cc1[nH]nc(C(F)(F)F)c1S(=O)(=O)N1CCC(Oc2cnccn2)CC1 [Compound 14, 2-((1-((5-Methyl-3-(trifluoromethyl)-1H-pyrazol-4-yl)sulfonyl)piperidin-4-yl)oxy)pyrazine]"
9,1110 ± 310 nM,"CCc1n[nH]c(CC)c1S(=O)(=O)N1CCC(Oc2cnccn2)CC1 [Compound 15, 2-((1-((3,5-Diethyl-1H-pyrazol-4-yl)sulfonyl)piperidin-4-yl)oxy)pyrazine]"
10,4290 ± 970 nM,"Cc1n[nH]c(C)c1S(=O)(=O)N(C)CCCOc1cnccn1 [Compound 19, N,3,5-Trimethyl-N-(3-(pyrazin-2-yloxy)propyl)-1H-pyrazole-4-Sulfonamide]"
11,15400 ± 3260 nM,"Cc1n[nH]c(C)c1S(=O)(=O)N1C[C@H]2CC[C@@H](C1)[C@H]2Oc1cnccn1 [Compound 27, (1R,5S,8r)-3-((3,5-Dimethyl-1H-pyrazol-4-yl)sulfonyl)-8-(pyrazin-2-yloxy)-3-azabicyclo[3.2.1]octane]"
12,690 ± 60 nM,"Cc1n[nH]c(C)c1S(=O)(=O)N1C[C@H]2CCC[C@@H](C1)[C@@H]2Oc1cnccn1 [Compound 29, (1R,5S,9s)-3-((3,5-Dimethyl-1H-pyrazol-4-yl)sulfonyl)-9-(pyrazin-2-yloxy)-3-azabicyclo[3.3.1]nonane]"

row,Structure (SMILES),IC50
1,"Cc1n[nH]c(C)c1S(=O)(=O)N1[C@@H]2CC[C@H]1C[C@@H](Oc1cnccn1)C2 [Compound 20, (1R,3r,5S)-8-((3,5-Dimethyl-1H-pyrazol-4-yl)sulfonyl)-3-(pyrazin-2-yloxy)-8-azabicyclo[3.2.1]octane]",230 ± 10 nM
2,"Cc1n[nH]c(C)c1S(=O)(=O)N1[C@@H]2CCC[C@H]1C[C@@H](Oc1cnccn1)C2 [Compound 25, (1R,3r,5S)-9-((3,5-Dimethyl-1H-pyrazol-4-yl)sulfonyl)-3-(pyrazin-2-yloxy)-9-azabicyclo[3.3.1]nonane]",370 ± 30 nM
3,"Cc1n[nH]c(C)c1S(=O)(=O)N1[C@@H]2COC[C@H]1C[C@@H](Oc1cnccn1)C2 [Compound 26, (1R,5S,7s)-9-((3,5-Dimethyl-1H-pyrazol-4-yl)sulfonyl)-7-(pyrazin-2-yloxy)-3-oxa-9-azabicyclo[3.3.1]nonane]",2330 ± 830 nM
4,"Cc1n[nH]c(C)c1S(=O)(=O)N1[C@@H]2CC[C@H]1C[C@@H](Oc1ccccn1)C2 [Compound 30, (1R,3r,5S)-8-((3,5-Dimethyl-1H-pyrazol-4-yl)sulfonyl)-3-(pyridin-2-yloxy)-8-azabicyclo[3.2.1]octane]",160 nM and 162 nM
5,"Cc1n[nH]c(C)c1S(=O)(=O)N1[C@@H]2CC[C@H]1C[C@@H](Oc1ccccc1)C2 [Compound 31, (1R,3r,5S)-8-((3,5-Dimethyl-1H-pyrazol-4-yl)sulfonyl)-3-phenoxy-8-azabicyclo[3.2.1]octane]",93 ± 20 nM
